# pIC50: −log10 of the molar value. Entries after “also recorded” stand apart in the source; their conditions may differ. Structures can show the parent of a compound that is named as a salt.
# Columns and labels:
# D5 [1] = molecular target: T1, D5 (Homo sapiens, UniProt P21918); assay: Radioligand competition binding, [3H]SCH 23390, GH4 cells
# T1 construct: ProLink enzyme-donor fragment of β-galactosidase (own knowledge of the PathHunter design)
# Description: (§4) All assays were performed in duplicate (ie, 2 replicates per assay, per standard manufacturer protocol).
# 5-HT1A [2] = conditions: IV DHE (53 ng/mL); cited from earlier work
# human 5-HT3 receptor = molecular target: T2, human 5-HT3 receptor (Homo sapiens, UniProt P46098); assay: Radioligand competition binding, [3H]GR-65630, HEK-293 cell membranes
# T2 construct: host or cells: HEK-293
# Description: Nonspecific binding was determined in the presence of 10 μM MDL 72222. Following incubation, the samples were filtered rapidly under vacuum through glass fiber filters (GF/B, Packard; Kennesaw, GA) presoaked with 0.3% polyethyleneimine and rinsed several times with ice-cold 50 mM Tris–HCl using a 96-sample cell harvester (UniFilter, Packard). The filters were dried and then counted for radioactivity in a scintillation counter (TopCount, Packard) using a scintillation cocktail (MicroScint 0, Packard). Results are expressed as percent inhibition of the control radioligand–specific binding. The standard reference compound was MDL 72222, which was tested in each experiment at several concentrations to obtain a competition curve from which its half-maximal inhibitory concentration (IC50) was calculated.
# 5-HT1A [3] = molecular target: T3, 5-HT1A (Homo sapiens, UniProt P08908); assay: gpcrMAX PathHunter β-arrestin recruitment, agonist mode; format: cell-based; conditions: 10 μM; >30% activity = agonist
# T3 construct: ProLink enzyme-donor fragment of β-galactosidase (own knowledge of the PathHunter design)
# Description: (§1) PathHunter cell lines were expanded from freezer stocks according to standard procedures and cells were seeded in a total volume of 20 μL into white-walled, 384-well microplates in duplicate and incubated at 37°C prior to testing. […] Intermediate dilution (1% vehicle concentration) of sample stocks was performed to generate a 5× sample in assay buffer, of which 5 μL was added to the cells and incubated for 90 or 180 min at 37°C or room temperature, depending on the specific receptor, as established by manufacturer optimization protocols (see Supplementary Table 1). For antagonist activity, cells were preincubated with an antagonist for 30 min, followed by an agonist challenge at 80% of the maximal effective concentration (EC80). Intermediate dilution of sample stocks was performed to generate 5× sample in assay buffer, of which 5 μL was added to cells and incubated at 37°C or room temperature for 30 min. This was followed by an addition of 5 μL of 6× EC80 agonist in assay buffer to the cells, which were incubated at 37°C or room temperature for 90 or 180 min. Assay signal for agonist and antagonist modes was generated through a single addition of 12.5 or 15 μL (50% v/v) of PathHunter Detection reagent cocktail, followed by a 1-h incubation at room temperature. Further experimental details can be found in the Supplementary File. Microplates were read with a PerkinElmer EnVision (Shelton, CT) instrument for chemiluminescent signal detection.
# (§2) Measurement of agonist and antagonist activity in the assay was calculated as percent activity of relative luminescence units (from positive control). Significance of agonist/antagonist activity was determined based upon prespecified criteria provided by Eurofins DiscoverX. In brief, receptor activity >30% was considered a significant agonist effect. Receptor inhibition >50% was considered a significant inhibitory effect. Please refer to the Supplementary File for more detail.
# (§3) Samples were added to cells and incubated for 90 or 180 minutes at 37 °C or room temperature, depending on the specific receptor, as noted, with specific incubation protocols outlined in Supplemental Table 1. For antagonist activity, preincubation temperatures were performed at the temperatures specified in Supplemental Table 1, per target. Incubation with 6× EC80 agonist was determined by the assay manufacturer and selected in order to provide a challenge that was low enough to be below the saturation point, so as to not bias the results, while still at a high enough challenge concentration to yield a robust signal-to-noise ratio. Further information is available from Eurofins Discovery Services upon request.
# 5-HT1B = molecular target: T4, 5-HT1B (Homo sapiens, UniProt P28222); assay: as above; format: cell-based; conditions: 10 μM; >30% activity = agonist
# T4 construct: host or cells: Chem-1 cells
# Description: as §1, §2, §3
# D5 [4] = molecular target: T1, D5; assay: as above; format: cell-based; conditions: 10 μM; >30% activity = agonist
# Description: as §1, §2, §3
# D2S = molecular target: T5, D2S (Homo sapiens, UniProt P14416); assay: as above; format: cell-based; conditions: 10 μM; >30% activity = agonist
# T5 construct: ProLink enzyme-donor fragment of β-galactosidase (own knowledge of the PathHunter design)
# Description: as §1, §2, §3
# 5-HT2C [5] = molecular target: T6, 5-HT2C (Homo sapiens, UniProt P28335); assay: as above; format: cell-based; conditions: 10 μM; >30% activity = agonist
# T6 construct: ProLink enzyme-donor fragment of β-galactosidase (own knowledge of the PathHunter design)
# Description: as §1, §2, §3
# 5-HT5A = molecular target: T7, 5-HT5A (Homo sapiens, UniProt P47898); assay: as above; format: cell-based; conditions: 10 μM; >30% activity = agonist
# T7 construct: ProLink enzyme-donor fragment of β-galactosidase (own knowledge of the PathHunter design)
# Description: as §1, §2, §3
# D2L = molecular target: T8, D2L (Homo sapiens, UniProt P14416); assay: as above; format: cell-based; conditions: 10 μM; >30% activity = agonist
# T8 construct: ProLink enzyme-donor fragment of β-galactosidase (own knowledge of the PathHunter design)
# Description: as §1, §2, §3
# 5-HT6 = conditions: IV DHE (53 ng/mL); cited from earlier work
# human 5-HT1B = system: human 5-HT1B; parameters: method as in doi:10.1186/1129-2377-14-S1-P75; conditions: cited from earlier work
# D2 = molecular target: T9, D2 (Homo sapiens, UniProt P14416); assay: Radioligand competition binding, [3H]7-OH-DPAT, HEK-293 cells
# T9 construct: host or cells: HEK-293
# Description: as §4
# α-adrenergic1 = conditions: IV DHE (53 ng/mL); cited from earlier work
# 5-HT1D = system: 5-HT1D; parameters: method as in doi:10.1186/1129-2377-14-S1-P75; conditions: cited from earlier work
# α-adrenergic2C = conditions: IV DHE (53 ng/mL); cited from earlier work
# D3 = conditions: IV DHE (53 ng/mL); cited from earlier work
# 5-HT1B/1D receptors = system: 5-HT1B/1D receptors; parameters: method as in doi:10.1186/1129-2377-14-S1-P75; conditions: cited from earlier work
# 5-HT2C [6] = conditions: IV DHE (53 ng/mL); cited from earlier work
# AMY2 (CTR-RAMP2) = molecular target: T10, AMY2 (CTR-RAMP2) (Homo sapiens, UniProt O60895+P30988); assay: gpcrMAX PathHunter β-arrestin recruitment, antagonist mode; format: cell-based
# T10 construct: ProLink enzyme-donor fragment of β-galactosidase (own knowledge of the PathHunter design)
# Description: as §1, §2, §3
# α-adrenergic2A = molecular target: T11, α-adrenergic2A (Homo sapiens, UniProt P08913); assay: as above; format: cell-based
# T11 construct: ProLink enzyme-donor fragment of β-galactosidase (own knowledge of the PathHunter design)
# Description: as §1, §2, §3
# D1 = molecular target: T12, D1 (Homo sapiens, UniProt P21728); assay: as above; format: cell-based
# T12 construct: ProLink enzyme-donor fragment of β-galactosidase (own knowledge of the PathHunter design)
# Description: as §1, §2, §3
# [7] = 10 μM, >50% inhibition = antagonist
# T2 sequence (P46098 24-478): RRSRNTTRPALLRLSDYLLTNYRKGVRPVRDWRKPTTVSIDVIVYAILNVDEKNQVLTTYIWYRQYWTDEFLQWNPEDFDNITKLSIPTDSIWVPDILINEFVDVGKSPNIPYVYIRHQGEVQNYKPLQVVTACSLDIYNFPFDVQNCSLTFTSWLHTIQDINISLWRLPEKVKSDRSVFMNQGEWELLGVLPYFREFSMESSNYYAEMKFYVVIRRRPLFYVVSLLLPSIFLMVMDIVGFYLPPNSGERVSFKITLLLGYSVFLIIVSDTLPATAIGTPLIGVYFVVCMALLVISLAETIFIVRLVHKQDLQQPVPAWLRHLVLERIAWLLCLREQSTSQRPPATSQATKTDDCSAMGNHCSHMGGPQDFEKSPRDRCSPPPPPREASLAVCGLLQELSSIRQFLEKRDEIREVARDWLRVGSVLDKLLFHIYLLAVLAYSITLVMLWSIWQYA
# T1 sequence (P21918 whole entry, the tested form may be a part): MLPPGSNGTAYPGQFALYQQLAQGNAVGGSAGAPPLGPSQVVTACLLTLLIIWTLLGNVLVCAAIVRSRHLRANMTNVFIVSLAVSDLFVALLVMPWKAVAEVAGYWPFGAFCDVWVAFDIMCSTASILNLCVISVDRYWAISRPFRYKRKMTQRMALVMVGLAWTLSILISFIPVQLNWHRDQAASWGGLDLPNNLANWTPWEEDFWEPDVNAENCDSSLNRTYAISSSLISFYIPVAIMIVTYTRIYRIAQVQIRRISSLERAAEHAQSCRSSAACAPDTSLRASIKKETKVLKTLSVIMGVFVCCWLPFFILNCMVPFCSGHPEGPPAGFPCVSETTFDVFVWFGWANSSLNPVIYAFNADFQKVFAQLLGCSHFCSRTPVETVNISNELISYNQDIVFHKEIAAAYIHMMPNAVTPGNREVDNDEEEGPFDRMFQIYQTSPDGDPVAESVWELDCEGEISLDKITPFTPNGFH
# T12 sequence (P21728 whole entry, the tested form may be a part): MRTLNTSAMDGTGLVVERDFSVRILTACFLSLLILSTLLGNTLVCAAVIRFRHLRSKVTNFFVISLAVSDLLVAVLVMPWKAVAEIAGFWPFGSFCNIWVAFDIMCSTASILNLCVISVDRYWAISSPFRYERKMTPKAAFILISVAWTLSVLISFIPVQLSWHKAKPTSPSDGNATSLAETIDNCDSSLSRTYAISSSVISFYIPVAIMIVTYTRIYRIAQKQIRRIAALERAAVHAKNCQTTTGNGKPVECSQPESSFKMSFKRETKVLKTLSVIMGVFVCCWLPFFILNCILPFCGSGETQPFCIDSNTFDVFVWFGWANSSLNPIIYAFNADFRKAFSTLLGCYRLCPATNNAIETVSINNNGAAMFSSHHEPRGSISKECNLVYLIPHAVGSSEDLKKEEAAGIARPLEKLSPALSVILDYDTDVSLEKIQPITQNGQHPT
# T11 sequence (P08913 whole entry, the tested form may be a part): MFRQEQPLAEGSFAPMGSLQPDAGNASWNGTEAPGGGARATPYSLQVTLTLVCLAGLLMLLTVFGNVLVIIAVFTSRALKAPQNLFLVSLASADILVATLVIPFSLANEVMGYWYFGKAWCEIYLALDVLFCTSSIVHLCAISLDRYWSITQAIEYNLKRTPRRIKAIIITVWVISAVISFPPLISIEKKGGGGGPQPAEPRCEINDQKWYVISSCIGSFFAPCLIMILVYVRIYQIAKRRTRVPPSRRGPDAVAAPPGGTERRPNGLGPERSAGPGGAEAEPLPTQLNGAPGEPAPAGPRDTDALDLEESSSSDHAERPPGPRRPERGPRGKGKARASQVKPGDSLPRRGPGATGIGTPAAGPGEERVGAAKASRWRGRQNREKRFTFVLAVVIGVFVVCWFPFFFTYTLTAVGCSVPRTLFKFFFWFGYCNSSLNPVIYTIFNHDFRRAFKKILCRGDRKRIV
# T10 sequence (P30988 25-474): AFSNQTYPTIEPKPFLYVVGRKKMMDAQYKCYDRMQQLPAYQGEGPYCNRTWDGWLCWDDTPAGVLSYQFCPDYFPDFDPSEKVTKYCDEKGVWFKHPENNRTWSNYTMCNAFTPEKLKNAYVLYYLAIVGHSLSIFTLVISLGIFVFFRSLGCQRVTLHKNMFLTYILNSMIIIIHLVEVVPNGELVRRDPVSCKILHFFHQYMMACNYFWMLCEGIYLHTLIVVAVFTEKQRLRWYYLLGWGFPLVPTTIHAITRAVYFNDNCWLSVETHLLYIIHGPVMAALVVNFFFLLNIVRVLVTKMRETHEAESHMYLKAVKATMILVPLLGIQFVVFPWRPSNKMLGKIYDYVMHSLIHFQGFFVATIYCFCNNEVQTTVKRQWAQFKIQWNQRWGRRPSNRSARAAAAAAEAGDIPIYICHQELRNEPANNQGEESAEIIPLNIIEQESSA
# T10 sequence (O60895 43-175 partner): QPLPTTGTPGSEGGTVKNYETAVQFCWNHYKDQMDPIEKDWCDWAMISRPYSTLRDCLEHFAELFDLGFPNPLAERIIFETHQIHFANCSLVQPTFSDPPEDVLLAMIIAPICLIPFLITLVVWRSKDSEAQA
# T4 sequence (P28222 whole entry): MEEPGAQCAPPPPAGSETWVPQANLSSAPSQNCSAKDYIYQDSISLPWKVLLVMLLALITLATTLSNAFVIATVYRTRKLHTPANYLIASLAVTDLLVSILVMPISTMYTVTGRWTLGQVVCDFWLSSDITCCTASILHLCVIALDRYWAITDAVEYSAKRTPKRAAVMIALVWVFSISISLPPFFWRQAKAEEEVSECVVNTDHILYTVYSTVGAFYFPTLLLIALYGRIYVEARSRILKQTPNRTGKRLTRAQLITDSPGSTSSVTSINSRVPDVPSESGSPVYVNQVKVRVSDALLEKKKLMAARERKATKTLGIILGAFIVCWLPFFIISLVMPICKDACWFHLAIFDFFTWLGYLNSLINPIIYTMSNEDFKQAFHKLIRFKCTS
# T5 sequence (P14416 1-414 isoform P14416-2): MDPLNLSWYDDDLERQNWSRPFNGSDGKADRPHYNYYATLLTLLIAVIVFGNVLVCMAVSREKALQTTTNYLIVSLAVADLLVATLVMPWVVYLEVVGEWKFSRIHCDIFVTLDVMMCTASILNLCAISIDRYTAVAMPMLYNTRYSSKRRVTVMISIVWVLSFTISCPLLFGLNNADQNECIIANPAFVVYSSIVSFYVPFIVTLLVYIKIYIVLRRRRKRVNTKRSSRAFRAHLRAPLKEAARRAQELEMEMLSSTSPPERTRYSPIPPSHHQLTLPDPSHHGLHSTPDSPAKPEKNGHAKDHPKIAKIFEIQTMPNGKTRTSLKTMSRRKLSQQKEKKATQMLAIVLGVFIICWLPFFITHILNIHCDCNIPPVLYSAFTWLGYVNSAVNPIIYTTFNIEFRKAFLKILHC
# T9 sequence (P14416 1-414 isoform P14416-2): as above
# T7 sequence (P47898 whole entry, the tested form may be a part): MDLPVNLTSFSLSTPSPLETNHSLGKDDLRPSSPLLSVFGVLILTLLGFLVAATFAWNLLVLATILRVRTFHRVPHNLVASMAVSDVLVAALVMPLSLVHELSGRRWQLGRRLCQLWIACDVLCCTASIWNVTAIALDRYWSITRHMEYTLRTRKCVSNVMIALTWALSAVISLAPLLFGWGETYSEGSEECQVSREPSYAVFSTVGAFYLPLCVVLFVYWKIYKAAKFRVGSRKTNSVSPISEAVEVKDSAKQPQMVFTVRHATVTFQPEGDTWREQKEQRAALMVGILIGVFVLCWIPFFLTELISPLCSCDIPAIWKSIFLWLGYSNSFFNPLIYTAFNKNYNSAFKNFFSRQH
# T8 sequence (P14416 whole entry, the tested form may be a part): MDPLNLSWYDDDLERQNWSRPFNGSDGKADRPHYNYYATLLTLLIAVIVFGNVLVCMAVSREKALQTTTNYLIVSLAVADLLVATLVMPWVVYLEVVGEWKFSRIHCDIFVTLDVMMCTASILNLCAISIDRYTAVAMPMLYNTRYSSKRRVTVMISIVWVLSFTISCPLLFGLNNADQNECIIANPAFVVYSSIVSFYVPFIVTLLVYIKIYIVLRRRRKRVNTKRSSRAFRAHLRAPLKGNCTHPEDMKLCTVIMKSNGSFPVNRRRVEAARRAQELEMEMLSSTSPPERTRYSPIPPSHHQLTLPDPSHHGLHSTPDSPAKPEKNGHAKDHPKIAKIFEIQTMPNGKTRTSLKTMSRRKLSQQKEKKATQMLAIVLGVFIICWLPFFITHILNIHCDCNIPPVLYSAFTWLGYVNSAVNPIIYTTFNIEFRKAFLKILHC
# T6 sequence (P28335 33-458): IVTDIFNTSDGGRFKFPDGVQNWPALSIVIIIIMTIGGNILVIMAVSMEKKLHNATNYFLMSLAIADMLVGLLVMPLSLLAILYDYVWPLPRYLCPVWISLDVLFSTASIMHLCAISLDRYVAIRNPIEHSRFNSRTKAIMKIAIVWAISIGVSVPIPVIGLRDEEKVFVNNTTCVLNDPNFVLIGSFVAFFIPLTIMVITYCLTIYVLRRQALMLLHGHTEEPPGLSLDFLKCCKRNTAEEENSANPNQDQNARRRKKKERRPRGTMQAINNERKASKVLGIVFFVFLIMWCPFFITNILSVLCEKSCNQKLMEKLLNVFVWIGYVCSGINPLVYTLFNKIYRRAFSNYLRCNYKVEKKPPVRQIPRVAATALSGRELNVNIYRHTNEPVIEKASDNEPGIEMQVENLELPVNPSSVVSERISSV
# T3 sequence (P08908 whole entry, the tested form may be a part): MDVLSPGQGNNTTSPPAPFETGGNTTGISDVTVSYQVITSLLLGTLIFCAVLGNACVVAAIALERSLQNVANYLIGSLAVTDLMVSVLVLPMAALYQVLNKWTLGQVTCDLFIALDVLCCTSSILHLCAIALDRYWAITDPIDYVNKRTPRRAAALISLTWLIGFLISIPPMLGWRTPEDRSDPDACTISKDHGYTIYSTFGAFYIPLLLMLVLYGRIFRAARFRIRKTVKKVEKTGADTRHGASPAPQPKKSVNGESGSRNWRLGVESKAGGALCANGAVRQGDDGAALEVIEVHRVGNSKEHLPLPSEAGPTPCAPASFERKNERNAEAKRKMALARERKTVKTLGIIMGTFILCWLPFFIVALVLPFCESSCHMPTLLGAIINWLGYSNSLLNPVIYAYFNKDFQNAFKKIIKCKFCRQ
structure (smiles),measurement,setting,value
"CN1C[C@H](C(=O)N[C@]2(C)O[C@@]3(O)[C@@H]4CCCN4C(=O)[C@H](Cc4ccccc4)N3C2=O)C[C@@H]2c3cccc4[nH]cc(c34)C[C@H]21 [DHE, Dihydroergotamine mesylate]",pIC50,D5 [1],6.43
same,receptor radioligand binding (active binding),5-HT1A [2],X (An X denotes active binding)
same,pIC50,human 5-HT3 receptor,< 6.52
same,binding to the 5-HT3 receptor,human 5-HT3 receptor; at concentrations up to 300 nM,did not bind; also recorded: did not exhibit binding
same,DHE activity (screening),5-HT1A [3],Agonist
same,DHE activity (screening),5-HT1B,Agonist
same,DHE activity (screening),D5 [4],Agonist
same,DHE activity (screening),D2S,Agonist
same,DHE activity (screening),5-HT2C [5],Agonist
same,DHE activity (screening),5-HT5A,Agonist
same,DHE activity (screening),D2L,Agonist
same,receptor radioligand binding (active binding),5-HT6,X (An X denotes active binding)
same,dissociation half-life,human 5-HT1B,1.38 h
same,pIC50,D2,9.33
same,receptor radioligand binding (active binding),α-adrenergic1,X (An X denotes active binding)
same,dissociation half-life,5-HT1D,1.28 h
same,receptor radioligand binding (active binding),α-adrenergic2C,X (An X denotes active binding)
same,receptor radioligand binding (active binding),D3,X (An X denotes active binding)
same,time bound to the receptors longer than sumatriptan,5-HT1B/1D receptors; 5-HT1B and 5-HT1D,8 to 14 h
same,"dissociation half-lives, times longer than those of sumatriptan",5-HT1B/1D receptors; human 5-HT1B and 5-HT1D,approximately 10 times
same,receptor radioligand binding (active binding),5-HT2C [6],X (An X denotes active binding)
same,inhibition at 10 µM,AMY2 (CTR-RAMP2),57%
same,DHE activity (screening),AMY2 (CTR-RAMP2); [7],Antagonist
same,DHE activity (screening),α-adrenergic2A; [7],Antagonist
same,inhibition at 10 µM,"α-adrenergic2A; agonist control UK 14,304 at EC80",115%
same,DHE activity (screening),D1; [7],Antagonist
same,inhibition at 10 µM,D1; agonist control Dopamine at EC80,71%
